# Data from patent publication US9458196B2, “Synthetic peptides capable of binding to influenza hemagglutinin protein” (priority 2012, dated 2016).
# Tested on: HA proteins from five different viral strains H1N1, H5N1, H9N2, H3N2 and H14N5
# Type: biochemical, influenza virus
row,Sequence,ability to block pH triggered shape changes / low pH induced association of HA proteins
1,PGDFNDYE [PF13],ability to block pH triggered shape changes
2,PYDVPDYE [PF11],ability to block pH triggered shape changes
3,KEFNNLEKR [PF42],ability to block pH triggered shape changes
4,PYDVPDYA [PF12],ability to block pH triggered shape changes
5,TKRSQQTVIP [PF31],ability to block pH triggered shape changes
6,TSRSQQTVIP [PF32],ability to block pH triggered shape changes
7,AERPKVRGQAGRMN [LPF54],ability to block pH triggered shape changes
8,KEFSEVEGR [PF41],ability to block pH triggered shape changes
